Among the test systems are SK-MEL-2 melanoma; TK-10 renal; SN12C renal; SK-MEL-28 melanoma; SW-620 colon; NCI-H522 lung; U251 CNS; RXF 393 renal; CCRF-CEM leukemia; RPMI-8226 leukemia.
Assay in all cases: inhibition of tumour cell growth, NCI panel, 48 h

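Interpolation was linear, between the two tested concentrations surrounding the appropriate level; five concentrations were tested over 48 hours in 96-well plates. GI50 marks 50% less growth. TGI marks complete inhibition of growth.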

The values below come from PubChem BioAssay (NCI).

As for `O=C1/C=C/[C@@H](O)[C@@H]2C[C@@H](O)C[C@H]2/C=C/CCC[C@H](CO)O1`, the GI50 was 2.39 µM with SK-MEL-2 melanoma; 3.06 µM in the experiment with TK-10 renal; 4.24 µM in the experiment with SN12C renal; 0.626 µM with SK-MEL-28 melanoma; 2.32 µM in the experiment with SW-620 colon; 2.67 µM in the experiment with NCI-H522 lung. In addition, the GI50 with U251 CNS is 3.3 µM; with RXF 393 renal, 1.61 µM; in the experiment on CCRF-CEM leukemia, 4.19 µM; in the experiment with RPMI-8226 leukemia, 3.32 µM. Also, the TGI is 5.95 µM with SK-MEL-2 melanoma; 10.9 µM in the experiment with TK-10 renal; greater than 100 µM in the experiment on SN12C renal; 3.65 µM with SK-MEL-28 melanoma; 6.81 µM with SW-620 colon; 7.74 µM with NCI-H522 lung. Further, the TGI is greater than 100 µM with U251 CNS, 5.04 µM in the experiment on RXF 393 renal, greater than 100 µM with CCRF-CEM leukemia and greater than 100 µM in the experiment with RPMI-8226 leukemia.
Regarding `O=c1ccccc(-c2ccc(-c3ccco3)cc2)c1O`, the GI50 was 10.5 µM in the experiment with SK-MEL-2 melanoma; 0.819 µM with TK-10 renal; 1.24 µM in the experiment on SN12C renal; 0.79 µM in the experiment with SK-MEL-28 melanoma; 0.438 µM in the experiment on SW-620 colon; 4.07 µM in the experiment with NCI-H522 lung. Further, the GI50 in the experiment with U251 CNS was 0.87 µM; in the experiment with RXF 393 renal, 0.951 µM; with CCRF-CEM leukemia, 0.505 µM; in the experiment with RPMI-8226 leukemia, 0.756 µM. For the same compound, the TGI came to 44.2 µM in the experiment on SK-MEL-2 melanoma; 82.9 µM with TK-10 renal; 16.6 µM with SN12C renal; 17.8 µM with SK-MEL-28 melanoma; 29.1 µM in the experiment with SW-620 colon; 45.8 µM in the experiment on NCI-H522 lung. Further, the TGI was 12.7 µM in the experiment with U251 CNS, 17.2 µM in the experiment with RXF 393 renal, greater than 100 µM in the experiment on CCRF-CEM leukemia and greater than 100 µM in the experiment on RPMI-8226 leukemia.
For the compound `CC(C)Cc1ccc(C(C)/C=C2\CCC(CN3CCCC3)C2=O)cc1` (stereo not given), the TGI with SK-MEL-2 melanoma amounted to 31.8 µM; in the experiment with TK-10 renal, 9.92 µM; in the experiment on SN12C renal, 13.3 µM; with SK-MEL-28 melanoma it was 28.4 µM; in the experiment on SW-620 colon, 29.7 µM; with NCI-H522 lung, 3.13 µM. The TGI was found to be 17.9 µM with U251 CNS, 34.3 µM with RXF 393 renal, 8.71 µM with CCRF-CEM leukemia and 5.53 µM in the experiment on RPMI-8226 leukemia.
For `Cc1ccc(NC(=O)CC/C(CC(=O)c2ccc(Cl)cc2)=N\NC(=O)C(=O)NN)cc1C`, the TGI with SK-MEL-2 melanoma, with TK-10 renal, with SN12C renal, in the experiment on SK-MEL-28 melanoma, with SW-620 colon and in the experiment with NCI-H522 lung was greater than 100 µM in each case. Also, the TGI with U251 CNS, in the experiment on RXF 393 renal, with CCRF-CEM leukemia and with RPMI-8226 leukemia was greater than 100 µM each time.
For the compound `N#C/C(=C/C=C/c1ccccc1)S(=O)c1ccccc1` (stereo not given), the GI50 with SK-MEL-2 melanoma is 2.09 µM; in the experiment on TK-10 renal, 0.501 µM; in the experiment on SN12C renal, 0.373 µM; in the experiment on SK-MEL-28 melanoma, 0.565 µM; with SW-620 colon it was 0.337 µM; with NCI-H522 lung it was 0.306 µM. In addition, the GI50 in the experiment on U251 CNS was 0.483 µM; with RXF 393 renal, 0.385 µM; with CCRF-CEM leukemia, 0.341 µM; in the experiment with RPMI-8226 leukemia it was 0.351 µM. For the same compound, the TGI turned out to be 5.62 µM with SK-MEL-2 melanoma; 1.85 µM with TK-10 renal; 1.63 µM in the experiment on SN12C renal; 1.96 µM in the experiment with SK-MEL-28 melanoma; 1.13 µM in the experiment with SW-620 colon; 1.35 µM in the experiment on NCI-H522 lung. Besides, the TGI turned out to be 1.7 µM in the experiment on U251 CNS, 1.47 µM in the experiment on RXF 393 renal, 1.59 µM in the experiment on CCRF-CEM leukemia and 1.32 µM with RPMI-8226 leukemia.
Consider `O=C1c2cccc3cc([N+](=O)[O-])cc(c23)C(=O)N1CCN1CCCC1`, for which the GI50 in the experiment on SK-MEL-2 melanoma was 1.88 µM; with TK-10 renal, 0.697 µM; with SN12C renal, 0.228 µM; with SK-MEL-28 melanoma, 1.3 µM; in the experiment on SW-620 colon, 0.389 µM; in the experiment on NCI-H522 lung, 0.495 µM. For the same compound, the GI50 with U251 CNS was 0.315 µM; in the experiment with RXF 393 renal it was 0.839 µM; in the experiment on CCRF-CEM leukemia, 0.343 µM; in the experiment with RPMI-8226 leukemia, 0.203 µM. Further, the TGI in the experiment on SK-MEL-2 melanoma is 4.45 µM; in the experiment with TK-10 renal, 2.52 µM; in the experiment on SN12C renal it was 1.11 µM; with SK-MEL-28 melanoma, 2.9 µM; in the experiment on SW-620 colon, 5.19 µM; with NCI-H522 lung it was 2.88 µM. The TGI stood at 3.01 µM in the experiment on RXF 393 renal, 7.02 µM in the experiment with CCRF-CEM leukemia and 1.27 µM in the experiment on RPMI-8226 leukemia.
In the case of `O=C(O)CN(c1ccccc1)S(=O)(=O)c1ccc(Cl)cc1`, the TGI with SK-MEL-2 melanoma, in the experiment with TK-10 renal, with SN12C renal, with SK-MEL-28 melanoma, with SW-620 colon and with NCI-H522 lung was greater than 100 µM throughout. The TGI in the experiment with U251 CNS, in the experiment with RXF 393 renal, in the experiment with CCRF-CEM leukemia and in the experiment on RPMI-8226 leukemia was greater than 100 µM each time.
Regarding `CC1OC(O[C@H]2/C=C/C=C/C=C/C=C/C=C/C=C/C=C/[C@H](C)[C@@H](O)[C@@H](C)[C@H](C)OC(=O)C[C@H](O)C[C@H](O)CC[C@@H](O)[C@H](O)C[C@H](O)C[C@]3(O)C[C@H](O)[C@@H](C(=O)O)[C@H](C2)O3)C(O)C(N)C1O` (stereo not given in full), the TGI with SK-MEL-2 melanoma is 59.3 µM; with TK-10 renal, 46.3 µM; with SN12C renal, 9.15 µM; in the experiment on SK-MEL-28 melanoma it was 35.2 µM; with SW-620 colon, 32.8 µM; in the experiment on NCI-H522 lung, 20.9 µM. The TGI in the experiment with U251 CNS was found to be 40.6 µM; in the experiment with RXF 393 renal it was 18.2 µM; with CCRF-CEM leukemia, 48.6 µM; in the experiment with RPMI-8226 leukemia, 60.3 µM. The GI50 with TK-10 renal was 27.2 µM; with SN12C renal, 2.01 µM; in the experiment on SK-MEL-28 melanoma, 12 µM; with U251 CNS it was 14.3 µM; in the experiment on CCRF-CEM leukemia, 9.99 µM; with RPMI-8226 leukemia it was 23.9 µM.
Regarding `CC(C)c1cccc(C(C)C)c1N=C(N)C#N`, the TGI was greater than 100 µM in the experiment on SK-MEL-2 melanoma; greater than 100 µM in the experiment on TK-10 renal; greater than 100 µM in the experiment on SN12C renal; greater than 100 µM with SK-MEL-28 melanoma; 58.5 µM in the experiment on SW-620 colon; greater than 100 µM with NCI-H522 lung. The TGI with U251 CNS is greater than 93.2 µM; with RXF 393 renal it was greater than 100 µM; in the experiment on CCRF-CEM leukemia, greater than 100 µM; with RPMI-8226 leukemia it was greater than 87.3 µM.
